Here are results for 17 compounds from ChEMBL document CHEMBL1777750, “Design strategies to target crystallographic waters applied to the Hsp90 molecular chaperone” (Bioorg Med Chem Lett, 2011).

The nature of assay [1]: Displacement of tritium-labeled resorcinol amide ligand from HSP90 by scintillation proximity assay. Background: Scintillation proximity formats need no separation of bound from free tracer.
Another assay has as its target Heat shock protein HSP90 (Homo sapiens, UniProt P07900+P08238). In words: Inhibition of HSP90 in human H1299 cells assessed as degradation of Akt protein after 24 hrs by luminex assay. In kind it is cell-based.
Assay [2] in a line: Binding affinity to HSP90 by isothermal titration calorimetry assay. For orientation: In ITC the heat of successive injections is recorded.

Each structure is given as a SMILES string.

Usually Ki stands for a dissociation constant, usually derived from enzyme kinetics or from competition with a known ligand. A lower Ki goes with tighter binding. Compound `COc1cc(-c2nc(C)nc3[nH]c(C)cc23)c(Cl)cc1Cl` yielded a Ki in assay [1] of 2000 nM.

In the case of `COc1cc(-c2nc(C)nc3[nH]cc(C(C)=O)c23)c(Cl)cc1Cl`, affinity in assay [1] was put at a Ki of 200 nM.

In the case of `COc1cc(-c2nc(C)nc3[nH]cc(F)c23)c(Cl)cc1Cl`, the affinity in assay [1] corresponds to a Ki of 200 nM.

Consider `COc1cc(-c2cc(N)nc(C)n2)c(Cl)cc1Cl`, for which, in assay [1], the Ki is 10000 nM.

As to `COc1cc(-c2nc(C)nc3[nH]ccc23)c(Cl)cc1Cl`, the affinity in assay [1], expressed as Ki, was 1700 nM.

The term IC50 denotes the concentration that inhibits the measured activity by half. As for `COc1cc(-c2cc(C)nc(N)n2)c(Cl)cc1Cl`, the half-maximal inhibitory concentration (IC50) at Heat shock protein HSP90 worked out at 10000 nM. In assay [1], this compound had a Ki of 140 nM.

What is called Kd is the free concentration of one partner at which half of the binding sites on the other are occupied at equilibrium, for simple one-to-one binding. `COc1ccccc1-c1cc(C)nc(N)n1` had a Kd in assay [2] of 3500 nM. In assay [1], this compound displayed a Ki of 7900 nM.

Consider `COc1cc(-c2nc(C)nc3[nH]c(C)c(C#N)c23)c(Cl)cc1Cl`, for which the IC50 on Heat shock protein HSP90 was determined as 700 nM.

On to `CCc1[nH]c2nc(C)nc(-c3cc(OC)c(Cl)cc3Cl)c2c1C#N`, for which the IC50 on Heat shock protein HSP90 turned out to be 500 nM. In assay [1], this compound displayed a Ki of 15 nM.

As for `COc1cc(-c2nc(C)nc3[nH]cc(Cl)c23)c(Cl)cc1Cl`, the IC50 on Heat shock protein HSP90 stood at 2000 nM. The Ki in assay [1] was found to be 200 nM.

On to `COc1cc(Cl)ccc1-c1cc(C)nc(N)n1`, for which the IC50 at Heat shock protein HSP90 was 27000 nM. Besides, the Ki in assay [1] stood at 2700 nM.

As for `COc1cc(-c2nc(C)nc3[nH]cc(C#N)c23)c(Cl)cc1Cl`, at Heat shock protein HSP90, the IC50 stood at 1000 nM.

On to `COc1cc(-c2nc(C)nc3[nH]c(C)c(Cl)c23)c(Cl)cc1Cl`, for which, in assay [1], the Ki worked out at 100 nM.

For `CC(C)(C)OC(=O)n1cccc1-c1cc(Cl)nc(N)n1`, the IC50 on Heat shock protein HSP90 is 45000 nM. Besides, the Ki in assay [1] was 300 nM.

Take `Cc1cc(-c2ccccc2)nc(N)n1`: the IC50 at Heat shock protein HSP90 is more than 10000 nM. Moreover, in assay [1], the Ki was determined as 22000 nM.

`Cc1cc(-c2ccc(Cl)cc2Cl)nc(N)n1`: on Heat shock protein HSP90, the IC50 turned out to be 10500 nM. The same compound had a Kd in assay [2] of 104 nM. This compound also displayed a Ki in assay [1] of 350 nM.

As for `Cc1cc(-c2cccn2C(=O)OC(C)(C)C)nc(N)n1`, the affinity in assay [1] corresponds to a Ki of 3700 nM.
